# Data published in paper PMC9221442, “Design, Synthesis and Characterization of [G10a]-Temporin SHa Dendrimers as Dual Inhibitors of Cancer and Pathogenic Microbes” (Biomolecules, 2022).
# Where two headings read alike, the source gives them in different places. Where a SMILES comes first, the peptide text is derived from it. Bridges are numbered along the chain shown (N, C = ends). Roman numbers before positions name the chains, in order. Where no end group is shown, it is not given here. [ ]: non-standard residue; d: D form.
# Legend:
# lung cancer cells A549 = assay type: cell-based, human; conditions: 48 h
# Method: (§1) The antiproliferative effect of the peptides was determined by using human cells, as previously described. Human cancer cells used in this experiment were ovarian cancer cells A2780 (obtained from ECACC), breast cancer cells MCF-7 (obtained from ATCC), liver cancer cells HepG2 (obtained from ATCC), lung cancer cells A549 (obtained from ATCC), pancreatic cancer cells MiaPaCa (obtained from ATCC), prostate cancer cells PC-3 (obtained from ATCC), and skin cancer cells MNT-1 (generous gift from the National Institute of Health (NIH). Normal human cells used were human lung fibroblasts IMR-90 (obtained from ATCC). All cells were cultured in DMEM which was supplemented with 10% fetal bovine serum (FBS), 1% L-glutamine, and 1% antibiotics (all from Invitrogen) at 37 °C in 5% CO2 incubator. For cytotoxicity assay, cells were maintained in 25 cm^2 flasks. Cells were separated from flasks using trypsin-EDTA solution (from Thermofisher) and counted using Malassez chamber and diluted in culture medium before seeding into 96-well cell-culture plates (Greiner bio-one, Paris, France) at approximately 3000 cells/well. Cells were then treated with increasing concentration of peptides diluted in culture medium (1:2 serial dilution, from 100 µM to 0 µM). After 48 h, medium was aspirated and number of viable cells was colorimetrically determined using resazurin-based assay following manufacturer’s instructions. The fluorescence intensity was measured using microplate reader (Biotek, Santa Clara, CA, USA, Synergy Mx) with an excitation wavelength of 530 nm and an emission wavelength of 590 nm. The fluorescence values were normalized by the controls (untreated cells) and expressed as percent of proliferation. The IC50 values of peptides (i.e., the concentrations causing 50% inhibition of cell proliferation) were determined using GraphPad® Prism 7 software.
# skin cancer cells MNT-1 = assay type: cell-based, human; conditions: 48 h
# Method: as §1
# [1] = test system: ovarian cancer cells A2780; assay type: cell-based, human; conditions: 48 h
# Method: as §1
# liver cancer cells HepG2 = assay type: cell-based, human; conditions: 48 h
# Method: as §1
# [2] = test system: breast cancer cells MCF-7; assay type: cell-based, human; conditions: 48 h
# Method: as §1
# [3] = test system: prostate cancer cells PC-3; assay type: cell-based, human; conditions: 48 h
# Method: as §1
# [4] = test system: pancreatic cancer cells MiaPaCa; assay type: cell-based, human; conditions: 48 h
# Method: as §1
# [5] = Stability study at different pH; conditions: pH 2 to pH 14
# Method: The stability of dendrimers at different pH values and temperatures was also determined. For this, a 510 model digital pH meter (Oakton Eutech) with working electrode of glass material and a Ag/AgCl as reference electrode was used for the pH record. […] Similarly, stability of monomer [G10a]-SHa and its three dendrimers was checked by heating the peptide dendrimers on different temperature ranges, i.e., room temperature, 35 °C, 40 °C, 50 °C and 60 °C.
# human red blood cells = assay: Hemolysis assay; assay type: cell-based; conditions: for hemolysis: 100 µM; for estimated HC50 (concentration causing 50% of hemolysis): 1 h
# Method: (§2) The ability of dendrimers and peptides to cause hemolysis was evaluated using human whole red blood cells. Briefly, fresh human erythrocytes (obtained from Divbio Science Europe, NL) were washed 3 times by centrifugation at 800× g for 5 min with sterile phosphate buffer saline (PBS, pH 7.4). The washed erythrocytes were resuspended in complete culture media (DMEM supplemented with 10% FBS) to a final concentration of 8%. Human erythrocytes were then added into sterile 96-well microplates (150 µL per well) and were exposed to increasing concentrations of peptides or dendrimers. After 1 h incubation at 37 °C, plates were centrifuged at 800× g for 5 min. Then, 100 µL of supernatant were carefully transferred to a new 96-well microplate and absorbance was measured at 450 nm using microplate reader. Triton-X100 at 0.1% (v/v) was used as positive control giving 100% hemolysis. The HC50 values of peptides and dendrimers (i.e., the concentration of compound causing 50% of hemolysis) were calculated using GraphPad® Prism 7 software.
# [6] = Stability study at different temperatures (absorbance spectrum); conditions: room temperature, 35 °C, 40 °C, 50 °C and 60 °C
# Method: The stability of dendrimers at different pH values and temperatures was also determined. For this, a 510 model digital pH meter (Oakton Eutech) with working electrode of glass material and a Ag/AgCl as reference electrode was used for the pH record. Dilute solutions of HCl and NaOH were added to adjust the pH of the solution from 2 to 12. Similarly, stability of monomer [G10a]-SHa and its three dendrimers was checked by heating the peptide dendrimers on different temperature ranges, i.e., room temperature, 35 °C, 40 °C, 50 °C and 60 °C.
# [7] = test system: human lung fibroblasts IMR-90; assay type: cell-based; conditions: 48 h
# Method: as §1
# human cancer cells = assay type: cell-based
# Method: as §1
# [8] = test system: Enterobacter cloacae (DSM 30054); assay type: cell-based; conditions: E. cloacae (DSM 30054), 18–24 h, aerobic
# Method: (§3) Experiments were performed in triplicate (n = 3).
# [9] = test system: Enterococcus faecalis (DSM 2570); assay type: cell-based; conditions: E. faecalis (DSM 2570), 18–24 h, micro-aerobic
# Method: as §3
# [10] = test system: Klebsiella pneumoniae (DSM 26371); assay type: cell-based; conditions: K. pneumoniae (DSM 26371), 18–24 h
# Method: as §3
# [11] = test system: Escherichia coli (ATCC 8739); assay type: cell-based; conditions: E. coli (ATCC 8739), 18–24 h, aerobic
# Method: as §3
# [12] = test system: Helicobacter pylori (ATCC 43504); assay type: cell-based; conditions: H. pylori (ATCC 43504), 18–24 h, micro-aerobic
# Method: as §3
# [13] = test system: Enterococcus faecium (DSM 20477); assay type: cell-based; conditions: E. faecium (DSM 20477), 18–24 h, micro-aerobic
# Method: as §3
# [14] = test system: Acinetobacter baumannii (DSM 30007); assay type: cell-based; conditions: A. baumannii (DSM 30007), 18–24 h, aerobic
# Method: as §3
# [15] = test system: Staphylococcus aureus (ATCC 6538); assay type: cell-based; conditions: S. aureus (ATCC 6538), 18–24 h, aerobic
# Method: as §3
# [16] = test system: Pseudomonas aeruginosa (ATCC 9027); assay type: cell-based; conditions: P. aeruginosa (ATCC 9027), 18–24 h, aerobic
# Method: as §3
# [17] = test system: Bacillus subtilis (ATCC 6633); assay type: cell-based; conditions: B. subtilis (ATCC 6633), 18–24 h, aerobic
# Method: as §3
# Hemolysis assay = assay type: cell-based, human; conditions: human; at 100 µM, 1 h, 37 °C, relative to Triton X-100 0.1%
# Method: as §2
# [18] = Dynamic light scattering (zetasizer); assay type: physicochemical
# Method: The dendrimeric solutions of peptides were transferred into transparent cuvette with care to remove bubble formation. The sample was then transferred to the cell holder and study was performed at 90° scattering angle at room temperature. The standard viscosity and refractive index were kept constant and kept at 1.0, 1.33 and 80.4 mPa, respectively.
Compound,IC50 (lung cancer cells A549) [µM],IC50 (skin cancer cells MNT-1) [µM],IC50 [1] [µM],IC50 (liver cancer cells HepG2) [µM],IC50 [2] [µM],IC50 [3] [µM],IC50 [4] [µM],stability at different pH [5],hemolytic activity (in words) (human red blood cells),hemolysis (human red blood cells),estimated HC50 (concentration causing 50% of hemolysis) (human red blood cells; red cells of human) [µM],stability at different temperatures [6],IC50 [7] [µM],IC50 (human cancer cells; 48 h) [µM],minimal inhibitory concentration (MIC) [11] [µM],minimal inhibitory concentration (MIC) [12] [µM],minimal inhibitory concentration (MIC) [14] [µM],minimal inhibitory concentration (MIC) [15] [µM],other results
"CC[C@H](C)[C@H](NC(=O)CNC(=O)[C@H](CO)NC(=O)[C@H](CC(C)C)NC(=O)[C@@H](N)Cc1ccccc1)C(=O)N[C@H](C(=O)NCC(=O)N[C@@H](CCSC)C(=O)N[C@@H](CC(C)C)C(=O)N[C@H](C)C(=O)N[C@@H](CCCCN)C(=O)N[C@@H](CC(C)C)C(=O)N[C@@H](Cc1ccccc1)C(=O)NCCCC[C@H](NC(=O)[C@H](Cc1ccccc1)NC(=O)[C@H](CC(C)C)NC(=O)[C@H](CCCCN)NC(=O)[C@@H](C)NC(=O)[C@H](CC(C)C)NC(=O)[C@H](CCSC)NC(=O)CNC(=O)[C@@H](NC(=O)[C@@H](NC(=O)CNC(=O)[C@H](CO)NC(=O)[C@H](CC(C)C)NC(=O)[C@@H](N)Cc1ccccc1)[C@@H](C)CC)C(C)C)C(N)=O)C(C)C [[G10a]2-SHa] (HELM PEPTIDE1{F.L.S.G.I.V.G.M.L.[dA].K.L.F.K.[am]}|PEPTIDE2{F.L.S.G.I.V.G.M.L.[dA].K.L.F}$PEPTIDE1,PEPTIDE2,14:R3-13:R2$$$V2.0)",3.79 ± 1.61,4.72 ± 0.36,4.42 ± 0.06,14.3 ± 1.37,5.69 ± 1.46,6.31 ± 0.66,8.71 ± 0.35,significantly stable at pH values up to 10 and unstable at high pH values of 12 and 14,high hemolytic activity,complete hemolysis,11.55 ± 0.38,considerable stability up to 60 °C,22.3 ± 0.4,6.85 ± 3.66,–,–,–,–,–
"FLSGIVGMLGKLF-NH2 [Temporin SHa, H-Phe^1-Leu^2-Ser^3-Gly^4-Ile^5-Val^6-Gly^7-Met^8-Leu^9-Gly^10-Lys^11-Leu^12-Phe^13-NH2]",–,–,–,–,–,–,–,–,–,–,–,–,–,–,50,3.12,6.25,3.12,"IC50 (lung cancer cells A549; Lung Cancer (A549), read-out: IC50 (cell proliferation)): > 100 µM; IC50 (skin cancer cells MNT-1; Skin Cancer (MNT-1), read-out: IC50 (cell proliferation)): > 100 µM; IC50 ([1]; Ovarian Cancer (A2780), read-out: IC50 (cell proliferation)): > 100 µM; IC50 (liver cancer cells HepG2; Liver Cancer (HepG-2), read-out: IC50 (cell proliferation)): > 100 µM; IC50 ([2]; Breast Cancer (MCF-7), read-out: IC50 (cell proliferation)): 20.4 ± 5.64 µM; IC50 ([3]; Prostate Cancer (PC-3), read-out: IC50 (cell proliferation)): > 100 µM; IC50 ([4]; Pancreatic Cancer (MiaPaCa), read-out: IC50 (cell proliferation)): > 100 µM; minimal inhibitory concentration (MIC) [8]: 50 µM; minimal inhibitory concentration (MIC) [9]: 12.5 µM; minimal inhibitory concentration (MIC) [10]: 50 µM; minimal inhibitory concentration (MIC) [13]: 6.25 µM; minimal inhibitory concentration (MIC) [16]: 50 µM; minimal inhibitory concentration (MIC) [17]: 1.56 µM; estimated HC50 (concentration causing 50% of hemolysis) (human red blood cells; human erythrocytes, 37 °C): 266.20 ± 41.27 µM; hemolysis at 1 h, 100 µM (Hemolysis assay): 24.5 ± 1.88%; IC50 ([7]; Human Normal Fibroblast (IMR-90), read-out: IC50 (cell proliferation)): > 100 µM; IC50 (human cancer cells; all cells except breast cancer MCF-7, up to 100 µM, read-out: IC50 on the human cells tested other than MCF-7): > 100 µM"
"I: H-FLSGIVGML[dA]KLFKK-NH2 / II: H-FLSGIVGML[dA]KLF / III: H-FLSGIVGML[dA]KLF (amide I:14-III:C, I:15-II:C) [[G10a]3-SHa]",3.74 ± 3.46,2.24 ± 0.05,2.31 ± 0.08,5.49 ± 0.37,3.77 ± 0.12,1.84 ± 0.17,6.94 ± 0.27,significantly stable at pH values up to 10 and unstable at high pH values of 12 and 14,high hemolytic activity,complete hemolysis,10.46 ± 0.36,considerable stability up to 60 °C,13.9 ± 0.42,3.76 ± 1.87,25,25,3.12,6.25,"Pdi Values (polydispersity index) ([18]; DLS): 0.462; average hydrodynamic diameter ([18]; DLS): about 46.13 nm; Z-Average ([18]; DLS, room temperature): 46.13 nm·days; Zeta Potential ([18]; zetasizer): −71.2 mV; times more active than [G10a]-SHa at inhibiting multiplying cancer cells (human cancer cells; from mean IC50 on human cancer cells): 4.8 times"
